Experimental data published in US4256760A, “Methods of treating mammals suffering from inflammation and pain” (Laboratorios Bago S.A., priority 1979, dated 1981).

Columns and labels:
[1] = prior art, cited from earlier work; for anti-inflammatory effect (known): administered to mammals
[2] = Anti-inflammatory activity (carrageenin induced edema test); format: in vivo, male rats of Spargue Dawley strain; conditions: for % Edema Inhibition, 1 hour / % Edema Inhibition, 3 hours / % Edema Inhibition, 5 hours: oral, 30 min before carrageenin, mg/kg: ASA 100, its ester 173, XAA 120, its ester 186, TAA 60, its ester 88; for % Edema Inhibition, 1 hour: 1 hour after carrageenin; for % Edema Inhibition, 3 hours: 3 hours after carrageenin; for % Edema Inhibition, 5 hours: 5 hours after carrageenin; for anti-inflammatory versus antinociceptive action (in words): conclusion
Method: Anti-inflammatory Activity (Carrageenin induced edema test)
Fifteen to twenty male rats of Spargue Dawley strain weighing 150-200 g, were employed for each compound tested. 0.1 ml of 1% carrageenin saline suspension was injected into the subplantar region of the right hind-paw. The test compounds were orally administered 30 minutes prior to the injection of carrageenin and the foot volume was determined 1,3 and 5 hours after the injection of carrageenin. The percent swelling in the foot was obtained by comparing the volume before and after the injection of carrageenin, and the rate of inhibition in the treated animals was calculated.

[3] = Analgesic activity, tail pressure test; format: in vivo, male mice of Rockland strain; conditions: oral; control (water) = 0; mg/kg: ASA 100, its ester 173, XAA 50, its ester 77, TAA 50, its ester 73.5
Method: Tail pressure test: Ten male mice of Rockland strain weighing 20-25 g were used for each compound tested. The response threshold on applying pressure to the tail was determined with an analgesy meter at 15 and 60 minutes after oral administration of the test compound. The pressure at which a struggle was elicited was read.

[4] = Analgesic activity, Randall-Selitto's test; format: in vivo, male mice of Rockland strain; conditions: oral, 30 min before carrageenin; control (water) = 0; mg/kg: ASA 100, its ester 173, XAA 50, its ester 77, TAA 50, its ester 73.5
Method: Randall-Selitto's method: Ten male mice of Rockland strain weighing 25 g were used for each compound tested. 0.1 ml of 1% carrageenin saline suspension was injected into the subplantar region of the right foot. The test compounds were orally administered 30 minutes before the injection. At hourly intervals for 3 hours after the carrageenin injection, the pain threshold for the inflammed feet was measured, determining the amount of pressure with an analgesy meter.

[5] = Influence on the gastro-intestinal tract (ulceration of the gastric epithelium, Shay et al.); format: in vivo, male rats of Sprague Dawley strain
Method: Influence on the gastro-intestinal tract
Ten male rats of Sprague Dawley strain, weighing 200-300 g were used for each compound tested. According to the method of Shay et al. (Shay, H., Komapov, S. A., Feb. S. S., Meranir, D., Gruenstein, M. Siplet, H. Gastroenterology 5, 43, 1945), under anesthesia, the pylorus was ligated and 4 hours later test compounds were orally administered. The animal was sacrificed 1 hour after compound administration. The stomach was removed and examined for macroscopic damage. The ulceration of the gastric epithelium was evaluated by the following evaluation: 0=no hemorrhage sites; 1=some isolated hemmorrhagic sites; 2=redness of the gastric epithelium; 3=1 to 5 small ulcers with a diameter smaller than 3 mm; 4=many small ulcers; 5=ulcers--greater than 3 mm; 6=perforated ulcer.

[6] = oral, pylorus ligated, 1 hour after administration, 0=no hemorrhage sites ... 6=perforated ulcer, control 3.0, mg/kg: phenylbutazone 75, ASA 100, its ester 173, XAA 120, its ester 186, TAA 60, its ester 88
[7] = oral, pylorus ligated, 1 hour after administration, versus control (distilled water) 3.0, doses as for Evaluation

Row | Compound | anti-inflammatory effect (known) [1] | % Edema Inhibition, 1 hour [2] [%] | % Edema Inhibition, 3 hours [2] [%] | % Edema Inhibition, 5 hours [2] [%] | Relative strength, Tail pressure test [3] | Relative strength, Randall-Selitto test [4] | Evaluation (ulceration of the gastric epithelium, score 0-6) [5, 6] | Increase (of ulceration evaluation) [5, 7] | analgesic effect (known) [1] | Evaluation (ulceration of the gastric epithelium, score 0-6) ([5]; rat, in vivo, po) | Increase (of ulceration evaluation) ([5]; rat, in vivo, po) | anti-inflammatory versus antinociceptive action (in words) [2]
1 | O=C(O)c1cccnc1Nc1cccc(C(F)(F)F)c1 [2 (3'-trifluoromethyl) anilino) pyridine-3-carboxylic acids] | known to have an anti-inflammatory effect |  |  |  |  |  |  |  |  |  |  | 
2 | CC(=O)Oc1ccccc1C(=O)O [Acetylsalicylic acid (ASA), o-Acetylsalicylic acid] |  | 3.8 | 24.8 | 25.3 | 1.00 | 1.05 | 4.1 | 1.1 | known to have an analgesic effect |  |  | 
3 | O=C(O)c1ccccc1Nc1cccc(C(F)(F)F)c1 [N (3'-trifluoromethylphenyl) anthranylic acid] | known to have an anti-inflammatory effect | 24.3 | 29.3 | 28.3 |  |  |  |  |  | 4.9 | 1.9 | 
4 | Cc1cccc(Nc2ccccc2C(=O)O)c1C [N-(2',3'-xylyl) anthranylic acid (XAA), N (2',3'-dimethylphenyl) anthranylic acid] | known to have an anti-inflammatory effect |  |  |  |  |  | 4.2 | 1.2 |  |  |  | 
5 | CCCCC1C(=O)N(c2ccccc2)N(c2ccccc2)C1=O [Phenylbutazone] |  |  |  |  |  |  | 5.5 | 2.5 |  |  |  | 
6 | Cc1cccc(Nc2ccccc2C(=O)OC2OC(=O)c3ccccc32)c1C (centres unmarked) [Phthalidyl N-(2',3'-xylyl) anthranylate, Phthalydil N(2',3'-xylyl) anthranylate] |  | 27.4 | 34.2 | 30.4 |  |  | 3.3 | 0.3 |  |  |  | act as anti-inflammatory agents more tha as antinociceptive agents
7 | CC(=O)Oc1ccccc1C(=O)OC1OC(=O)c2ccccc21 (centres unmarked) [Phthalidyl acetylsalicylate, Phthalydil o-acetylsalicylate] |  | 10.2 | 30.30 | 31.0 | 1.82 | 1.54 | 3.0 |  |  |  |  | 
8 | O=C(OC1OC(=O)c2ccccc21)c1ccccc1Nc1cccc(C(F)(F)F)c1 (centres unmarked) [Phthalydil N(3'-trifluoromethylphenyl) anthranylate] |  | 35.4 | 40.2 | 37.4 |  |  | 3.5 | 0.5 |  |  |  | act as anti-inflammatory agents more tha as antinociceptive agents
